Test results: patent publication US20240025884A1 (Dong-A ST Co., Ltd., priority 2022, published 2024)
pIC50: −log10 of the molar value.

Target: GCN2 (Homo sapiens (Human), UniProt Q9P2K8)
Experiment: GCN2 Biochemical Assay (TR-FRET, GFP-eIF2S1 substrate phosphorylation)
Conditions: read-out: IC50 (GCN2 Inhibitory Activity)
Outline: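 TR-FRET readout (Ex 340, Em 490/520 nm) after 2–3 h with Tb-labelled phospho-eIF2S1 antibody in stop mix, following a 70 min room-temperature kinase step. Reaction: in-house GCN2, GFP-eIF2S1, ATP, tRNA in Tris pH 7.5 (2× stocks 1.6 nM, 50 nM, 0.2 mM); compounds tested at 10 concentrations, with a phospho-substrate artifact counter-plate.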

GCN2, sequence (Q9P2K8 whole entry): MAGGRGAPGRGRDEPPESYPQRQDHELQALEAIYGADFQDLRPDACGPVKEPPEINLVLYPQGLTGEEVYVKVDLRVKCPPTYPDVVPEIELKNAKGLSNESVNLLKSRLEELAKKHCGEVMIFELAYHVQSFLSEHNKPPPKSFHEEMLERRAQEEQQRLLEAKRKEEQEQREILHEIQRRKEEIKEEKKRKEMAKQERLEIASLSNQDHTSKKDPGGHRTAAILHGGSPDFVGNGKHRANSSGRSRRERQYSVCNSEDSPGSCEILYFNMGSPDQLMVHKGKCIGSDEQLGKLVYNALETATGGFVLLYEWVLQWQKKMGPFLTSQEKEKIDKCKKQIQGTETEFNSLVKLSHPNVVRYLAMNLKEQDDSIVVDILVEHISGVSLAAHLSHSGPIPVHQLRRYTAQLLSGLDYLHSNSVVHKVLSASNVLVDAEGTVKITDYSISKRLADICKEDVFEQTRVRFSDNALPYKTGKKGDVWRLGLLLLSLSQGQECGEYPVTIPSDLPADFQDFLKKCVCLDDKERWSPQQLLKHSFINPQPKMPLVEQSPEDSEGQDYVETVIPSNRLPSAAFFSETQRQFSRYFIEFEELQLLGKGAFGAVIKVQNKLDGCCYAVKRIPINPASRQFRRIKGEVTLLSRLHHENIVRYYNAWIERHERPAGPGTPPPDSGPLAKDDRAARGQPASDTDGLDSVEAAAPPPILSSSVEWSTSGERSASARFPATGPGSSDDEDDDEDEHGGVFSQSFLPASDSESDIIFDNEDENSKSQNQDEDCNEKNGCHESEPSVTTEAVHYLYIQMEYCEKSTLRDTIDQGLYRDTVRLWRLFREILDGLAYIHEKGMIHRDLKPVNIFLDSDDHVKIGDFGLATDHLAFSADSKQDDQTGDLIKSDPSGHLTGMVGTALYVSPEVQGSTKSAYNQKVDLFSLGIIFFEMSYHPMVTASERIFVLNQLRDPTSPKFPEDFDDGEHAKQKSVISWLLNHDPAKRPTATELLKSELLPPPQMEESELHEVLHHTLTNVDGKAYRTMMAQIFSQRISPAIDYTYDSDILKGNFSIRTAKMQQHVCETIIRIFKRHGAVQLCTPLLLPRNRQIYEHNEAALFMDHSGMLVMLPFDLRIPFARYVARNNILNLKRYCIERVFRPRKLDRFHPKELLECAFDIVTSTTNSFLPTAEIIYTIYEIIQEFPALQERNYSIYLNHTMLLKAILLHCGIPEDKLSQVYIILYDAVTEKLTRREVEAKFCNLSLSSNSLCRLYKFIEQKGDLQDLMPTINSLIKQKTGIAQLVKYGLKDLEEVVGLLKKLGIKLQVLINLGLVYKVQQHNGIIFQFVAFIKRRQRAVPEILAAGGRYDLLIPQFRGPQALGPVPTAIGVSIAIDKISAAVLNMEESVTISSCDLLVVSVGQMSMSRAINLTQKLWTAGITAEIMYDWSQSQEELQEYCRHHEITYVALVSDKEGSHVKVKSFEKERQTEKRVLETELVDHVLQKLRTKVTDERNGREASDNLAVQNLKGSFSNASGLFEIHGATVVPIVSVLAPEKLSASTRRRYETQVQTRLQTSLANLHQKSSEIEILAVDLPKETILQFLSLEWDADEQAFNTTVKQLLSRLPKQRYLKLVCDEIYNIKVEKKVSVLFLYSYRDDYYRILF

pIC50	SMILES
> 8.00	Cc1cnc(Nc2cc(C)n(C)n2)nc1-c1c[nH]c2c(N3Cc4c(cccc4-c4cnc(N(C)C)nc4)C3=O)cccc12 [Example 414, 2-(3-(2-((1,5-dimethyl-1H-pyrazol-3-yl)amino)-5-methylpyrimidin-4-yl)-1H-indol-7-yl)-4-(2-(dimethylamino)pyrimidin-5-yl)isoindolin-1-one]
> 8.00	Cc1cnc(Nc2cc(C)n(C)n2)nc1-c1c[nH]c2c(N3Cc4c(cccc4-c4cnn(CC5CC5)c4)C3=O)cccc12 [Example 415, 4-(1-(cyclopropylmethyl)-1H-pyrazol-4-yl)-2-(3-(2-((1,5-dimethyl-1H-pyrazol-3-yl)amino)-5-methylpyrimidin-4-yl)-1H-indol-7-yl)isoindolin-1-one]
> 8.00	Cc1cnc(Nc2cc(C)n(C)n2)nc1-c1c[nH]c2c(N3Cc4c(cccc4-c4cnn(CCN5CCOCC5)c4)C3=O)cccc12 [Example 416, 2-(3-(2-((1,5-dimethyl-1H-pyrazol-3-yl)amino)-5-methylpyrimidin-4-yl)-1H-indol-7-yl)-4-(1-(2-morpholinoethyl)-1H-pyrazol-4-yl)isoindolin-1-one]
> 8.00	Cc1cnc(Nc2cc(C)n(C)n2)nc1-c1c[nH]c2c(N3Cc4c(cccc4-c4cncnc4)C3=O)cccc12 [Example 417, 2-(3-(2-((1,5-dimethyl-1H-pyrazol-3-yl)amino)-5-methylpyrimidin-4-yl)-1H-indol-7-yl)-4-(pyrimidin-5-yl)isoindolin-1-one]
> 8.00	Cc1cnc(Nc2cc(C)n(C)n2)nc1-c1c[nH]c2c(N3Cc4c(cccc4-c4cnc(N)nc4)C3=O)cccc12 [Example 418, 4-(2-aminopyrimidin-5-yl)-2-(3-(2-((1,5-dimethyl-1H-pyrazol-3-yl)amino)-5-methylpyrimidin-4-yl)-1H-indol-7-yl)isoindolin-1-one]
> 8.00	Cc1cnc(Nc2cc(C)n(C)n2)nc1-c1c[nH]c2c(N3Cc4c(cccc4-c4cncc(N)c4)C3=O)cccc12 [Example 419, 4-(5-aminopyridin-3-yl)-2-(3-(2-((1,5-dimethyl-1H-pyrazol-3-yl)amino)-5-methylpyrimidin-4-yl)-1H-indol-7-yl)isoindolin-1-one]
> 8.00	Cc1cnc(Nc2cc(C)n(C)n2)nc1-c1c[nH]c2c(N3Cc4c(cccc4-c4ccc(N)nc4)C3=O)cccc12 [Example 420, 4-(6-aminopyridin-3-yl)-2-(3-(2-((1,5-dimethyl-1H-pyrazol-3-yl)amino)-5-methylpyrimidin-4-yl)-1H-indol-7-yl)isoindolin-1-one]
> 8.00	Cc1cnc(Nc2cc(C)n(C)n2)nc1-c1c[nH]c2c(N3Cc4c(cccc4-c4ccncn4)C3=O)cccc12 [Example 421, 2-(3-(2-((1,5-dimethyl-1H-pyrazol-3-yl)anlino)-5-methylpyrimidin-4-yl)-1H-indol-7-yl)-4-(pyrimidin-4-yl)isoindolin-1-one]
> 8.00	Cc1cnc(Nc2cc(C)n(C)n2)nc1-c1c[nH]c2c(N3Cc4c(cccc4-c4ccnc(N)n4)C3=O)cccc12 [Example 422, 4-(2-aminopyrimidin-4-yl)-2-(3-(2-((1,5-dimethyl-1H-pyrazol-3-yl)amino)-5-methylpyrimidin-4-yl)-1H-indol-7-yl)isoindolin-1-one]
> 8.00	Cc1cnc(Nc2cc(C)n(C)n2)nc1-c1c[nH]c2c(N3Cc4c(cccc4-c4cc(N5CCN(C)CC5)ccn4)C3=O)cccc12 [Example 423, 2-(3-(2-((1,5-dimethyl-1H-pyrazol-3-yl)amino)-5-methylpyrimidin-4-yl)-1H-indol-7-yl)-4-(4-(4-methylpiperazin-1-yl)pyridin-2-yl)isoindolin-1-one]
> 8.00	Cc1cnc(Nc2cc(C)n(C)n2)nc1-c1c[nH]c2c(N3Cc4c(cccc4-c4cnc(N5CCNCC5)nc4)C3=O)cccc12 [Example 424, 2-(3-(2-((1,5-dimethyl-1H-pyrazol-3-yl)amino)-5-methylpyrimidin-4-yl)-1H-indol-7-yl)-4-(2-(piperazin-1-yl)pyrimidin-5-yl)isoindolin-1-one]
> 8.00	Cc1cnc(Nc2cc(C)n(C)n2)nc1-c1c[nH]c2c(N3Cc4c(cccc4-c4ccc(N5CCOCC5)nc4)C3=O)cccc12 [Example 425, 2-(3-(2-((1,5-dimethyl-1H-pyrazol-3-yl)amino)-5-methylpyrimidin-4-yl)-1H-indol-7-yl)-4-(6-morpholinopyridin-3-yl)isoindolin-1-one]
> 8.00	Cc1cnc(Nc2cc(C)n(C)n2)nc1-c1c[nH]c2c(N3Cc4c(cccc4-c4ccc(N5CCN(C)CC5)cc4)C3=O)cccc12 [Example 426, 2-(3-(2-((1,5-dimethyl-1H-pyrazol-3-yl)amino)-5-methylpyrimidin-4-yl)-1H-indol-7-yl)-4-(4-(4-methylpiperazin-1-yl)phenyl)isoindolin-1-one]
> 8.00	Cc1cnc(Nc2cc(C)n(C)n2)nc1-c1c[nH]c2c(N3Cc4c(cccc4-c4cc(F)nc(F)c4)C3=O)cccc12 [Example 427, 4-(2,6-difluoropyridin-4-yl)-2-(3-(2-((1,5-dimethyl-1H-pyrazol-3-yl)amino)-5-methylpyrimidin-4-yl)-1H-indol-7-yl)isoindolin-1-one]
> 8.00	Cc1cnc(Nc2cc(C)n(C)n2)nc1-c1c[nH]c2c(N3Cc4c(cccc4-c4c(F)cncc4F)C3=O)cccc12 [Example 428, 4-(3,5-difluoropyridin-4-yl)-2-(3-(2-((1,5-dimethyl-1H-pyrazol-3-yl)amino)-5-methylpyrimidin-4-yl)-1H-indol-7-yl)isoindolin-t-one]
> 8.00	Cc1cc(-c2cccc3c2CN(c2cccc4c(-c5nc(Nc6cc(C)n(C)n6)ncc5C)c[nH]c24)C3=O)ccn1 [Example 429, 2-(3-(2-((1,5-dimethyl-1H-pyrazol-3-yl)amino)-5-methylpyrimidin-4-yl)-1H-indol-7-yl)-4-(2-methylpyridin-4-yl)isoindolin-1-one]
> 8.00	Cc1cnc(Nc2cc(C)n(C)n2)nc1-c1c[nH]c2c(N3Cc4c(cccc4-c4ccc5c(c4)CNC5)C3=O)cccc12 [Example 430, 2-(3-(2-((1,5-dimethyl-1H-pyrazol-3-yl)amino)-5-methylpyrimidin-4-yl)-1H-indol-7-yl)-[4,5′-biisoindolin]-1-one]
> 8.00	Cc1cnc(Nc2cc(C)n(C)n2)nc1-c1c[nH]c2c(N3Cc4c(cccc4-c4cccnc4F)C3=O)cccc12 [Example 431, 2-(3-(2-((1,5-dimethyl-1H-pyrazol-3-yl)amino)-5-methylpyrimidin-4-yl)-1H-indol-7-yl)-4-(2-fluoropyridin-3-yl)isoindolin-1-one]
> 8.00	Cc1cnc(Nc2cc(C)n(C)n2)nc1-c1c[nH]c2c(N3Cc4c(cccc4-c4ccc(C#N)cc4)C3=O)cccc12 [Example 432, 4-(2-(3-(2-((1,5-dimethyl-1H-pyrazol-3-yl)amino)-5-methylpyrimidin-4-yl)-1H-indol-7-yl)-1-oxoisoindolin-4-yl)benzonitrile]
7.00 to 8.00	Cc1cnc(Nc2cc(C)n(C)n2)nc1-c1c[nH]c2c(N3Cc4c(cccc4-c4ccc(C#N)cc4F)C3=O)cccc12 [Example 433, 4-(2-(3-(2-((1,5-dimethyl-1H-pyrazol-3-yl)amino)-5-methylpyrimidin-4-yl)-1H-indol-7-yl)-1-oxoisoindolin-4-yl)-3-fluorobenzonitrile]
